Results published in patent US20240307220A1, “Combination Therapy to Treat Temperature Sensitive Mutant Tumors” (H. LEE MOFFITT CANCER CENTER AND RESEARCH INSTITUTE INC., priority 2021, published 2024).

How the values were obtained:
[1] = system: H1299 stably expressing ts p53 mutants; assay: Apoptosis (PARP cleavage) and MTS cell viability in H1299 stably expressing ts p53 mutants treated with CPT; assay type: cell-based, human
Experimental: FIGS. 3A to 3D show induction of growth arrest and cell death by p53 ts mutants. […] DNA replication rate was measured by scintillation counting and normalized to cell number. […] PARP cleavage was determined by Western blot. FIGS. 3C and 3D show H1299 stably expressing ts p53 mutants treated with CPT at indicated concentrations for 48 hrs at 37° C. or 32° C. Cell viability was determined by MTS assay. The results are average of 3 experiments (mean±SD).
Western blot. Cells were lysed in lysis buffer (50 mM Tris-HCl pH 8.0, 5 mM EDTA, 150 mM NaCl, 0.5% Nonidet P-40, 1×protease inhibitor cocktail) and centrifuged for 10 minutes at 14,000×g, and the insoluble debris was discarded. Cell lysate (10-50 µg of protein) was fractionated by SDS-PAGE and transferred to Immobilion P filters (Millipore). […] MDM2 was detected using monoclonal antibody 3G9 produced in house. Other markers were detected using commercial antibodies: Actin (Sigma A5441), p53-DO1 (BD Pharmingen #554293), p21 (BD Pharmingen #556430), PUMA (CellSignaling #12450), PARP (BD Pharmingen #556362), p53 pSer15 (CellSignaling #9284), p53 acetyl-Lys382 (CellSignaling #2525).
Cell proliferation and viability assays. DNA replication was analyzed using ^3H-thymidine incorporation assay. […] The incorporated ^3H-thymidine was analyzed by liquid scintillation counting. […]

[2] = system: UC3 bladder cancer cells; assay: UC3 colony formation after 2 hrs drug treatment, washout and 32° C. or 37° C. incubation; assay type: cell-based; details: 2 hrs drug at 37° C., washout, 32° C. vs 37° C. 24 hrs, then 7 days at 37° C.
Experimental: FIGS. 17A and 17B show hypothermia treatment given after chemotherapy enhances drug response in bladder cancer. […] The washed cells were incubated at 32° C. or 37° C. for 24 hrs, followed by 7 days at 37° C. and crystal violet staining for colony formation.
Standard bladder intravesical chemotherapy involves 1-2 hr irrigation with drugs at 37° C. or 42° C. The effect of treating cells with 32° C. hypothermia after chemotherapy was tested to avoid interference with drug uptake. TS mutant p53 activation peaks 6-8 hrs after shift to 32° C., which should cooperate with chemotherapy-induced DNA damage to induce cell death. […] Saline irrigation of up to 24 hrs is routinely performed after transurethral resection of bladder tumor (TURBT) procedure to prevent clotting. Therefore, irrigation with cooled saline after intravesical chemotherapy is expected to be well-tolerated and safe.

[3] = system: GA10 tumors; assay: GA10 subcutaneous tumor xenografts in nude mice treated with CPT with or without hypothermia; assay type: in vivo
Experimental: FIGS. 7A to 7E show hypothermia cooperates with chemotherapy to induce regression of tumors expressing ts p53. […] CPT (1.5 mg/kg) was given at the beginning of each hypothermia cycle. Average size of tumors was plotted over time (mean±SD). FIG. 7B contains pictures of a GA10 partial response tumor before and after treatment. FIG. 7C is a waterfall plot showing combined results of 3 experiments. Tumors with durable remission are marked as “cured”. FIG. 7D contains individual growth curves of representative GA10 tumors from FIG. 7A that achieved durable remission after treatment. FIG. 7E contains individual growth curves of GA10 tumors from FIG. 7A that relapsed and received re-treatment.
FIGS. 14A to 14D show effect of low-dose CPT treatment alone on tumor growth. […] Tumor growth at 37° C. (without hypothermia treatment) was determined at indicated time points. […] Tumor growth at 37° C. (without hypothermia treatment) was determined at indicated time points. […] When tumors reached approximately 100 mm^3 the mice were injected i.p. with 1.5 mg/kg CPT every 3 days. Tumor growth was monitored over time (mean±SD). […] Average size of tumors was plotted over time.
Animal experiment. Animal experiments were reviewed and approved by the University of South Florida IACUC. Athymic female nude mice (6-week old, Athymic Nude-Foxn1nu, Envigo) were injected subcutaneously with 0.1 ml 1:1 slurry of Matrigel (VWR 47743-715) and 1×10^7 cells in PBS at each site. The inoculated mice were housed in a cabinet set to 28° C. (ARIA BIO-C36 ventilated cabinet, TECNIPLAST) to ensure that tumors develop at ˜37° C. Each mouse received injections at 2 sites, tumors formed at >80% of sites injected with GA10 cells. N^6-cyclohexyladenosine (CHA, Sigma C9901) was dissolved at 20 mg/ml in 25% (2-Hydroxypropyl)-β-cyclodextrin (w/v, Sigma H107) and heated at 65° C. for 10 min to ensure dissolution. Camptothecin (CPT, Santa Cruz Biotechnology sc-200871B) was freshly dissolved in 1 N NaOH, diluted to ˜0.5 mg/ml with saline, and adjusted to pH10 using HCl. To induce hypothermia, 0.2 ml saline+10% glucose containing CHA and CPT was administered by intra peritoneal injection to provide a CHA dosage of 10 mg/kg body weight and CPT (when indicated) dosage of 1.5 mg/kg body weight. The mice were kept in the 28° C. cabinet and monitored using infrared thermal imaging camera (FLIR ONE Pro, FLIR® Systems, Inc.) to verify that body temperature was maintained at ˜32° C. A second injection of CHA (10 mg/kg) in 0.4 ml saline+10% glucose was given after 10 hours to maintain hypothermia for ˜24 hours. A third injection of CHA (10 mg/kg) in 0.4 ml saline+10% glucose was given after 10 hours to maintain hypothermia for ˜32 hours. […]

## CC[C@@]1(O)C(=O)OCc2c1cc1n(c2=O)Cc2cc3ccccc3nc2-1 [CPT, Camptothecin]
[1]; 0.5 μM CPT for 48 hrs at 32° C., 1% FBS
  apoptosis indicated by PARP cleavage: cooperated with CPT to induce apoptosis
[1]; CPT for 48 hrs at 32° C.
  cell viability (MTS assay): loss of cell viability
[2]
  effect of 32° C. for 24 hrs after drug on growth inhibition (colony formation): significantly increased the growth inhibition potency
[3]; 1.5 mg/kg CPT i.p., 37° C., no hypothermia
  GA10 tumor growth, CPT alone: modestly inhibited GA10 tumor growth at 37 °C but did not cause shrinkage
[3]; 1.5 mg/kg CPT, 37° C. body temperature (p53 inactive)
  response to CPT, GA10 versus GA10-p53KO tumors: no difference in response to CPT
[3]; CPT 1.5 mg/kg, 32° C. hypothermia, 32 hr×5 format
  GA10 tumor response to hypothermia+CPT combination: significant regression
[3]; hypothermia+CPT, 32 hr×5 format, 50-day observation period after stopping treatment (12/37)
  GA10 tumors that did not relapse: 32%
